Measured values reported in patent US11850234B2, “Enhancement of cancer treatment efficiency via the sphingosine-1-phosphate pathway” (priority 2017, dated 2023).

Experiments:
[1] = system: CAM-grafted pancreas, lung and ovarian tumors; test: Neoadjuvant effect in the CAM (Chicken Chorioallantoic Model) with grafted tumors; format: in vivo; settings: compared to CAM-grafted tumors not previously treated with the neoadjuvants
Procedure: The neoadjuvant effect of benzylphthalazine and imidazole derivatives according to the present invention are assessed for their neoadjuvant effect against pancreas, lung and ovarian tumors.
The neoadjuvant effect is evaluated using the CAM (Chicken Chorioallantoic Model) as described by Sliwinska et al. (Sliwinska et al., Angiogenesis, 2014, 14(4), 779-804).

[2] = system: pancreatic adenocarcinoma; test: Overall survival of pancreatic adenocarcinoma patients under gemcitabine chemotherapy, by plasmatic S1P concentration; format: in vivo, human
[3] = system: breast cancer metastatic cell line; settings: 10 μM of S1P co-administered; cited from earlier work

Row | Compound | cytotoxic effect against CAM-grafted tumors pretreated with neoadjuvant [1] | overall survival median ([2]; conventional gemcitabine chemotherapy, plasmatic S1P higher than 650 nM versus lower, FIG. 3) | overall survival ([2]; patients having a high plasmatic S1P concentration (>650 nM), FIG. 5) | effect on cytotoxicity of docetaxel, doxorubicin and cyclophosphamide [3]
1 | Nc1ccn([C@@H]2O[C@H](CO)[C@@H](O)C2(F)F)c(=O)n1 [gemcitabine] | enhanced | better overall survival median | 12.3 months | 
2 | CC(=O)O[C@H]1C(=O)[C@@]2(C)[C@H]([C@H](OC(=O)c3ccccc3)[C@]3(O)C[C@H](OC(=O)[C@H](O)[C@@H](NC(=O)c4ccccc4)c4ccccc4)C(C)=C1C3(C)C)[C@]1(OC(C)=O)CO[C@@H]1C[C@@H]2O [paclitaxel] | enhanced |  |  | 
3 | CCCCCCCCCCCCC/C=C/[C@@H](O)[C@@H](N)COP(=O)(O)O [S1P, Sphingosine-1-phosphate] |  |  |  | increased the cytotoxicity
